Results published in US20260226417A1, “METHOD FOR INHIBITING AGING OF STEM CELLS” (ENCELL CO., LTD, priority 2023, published 2026).

How the values were obtained:
[1] = test system: Annexin V, an apoptosis marker, in muscle tissue; test: Annexin V Western blotting in muscle tissue of muscle disease mouse model after injection of treated P18 cells; assay type: in vivo; details: P18 cells treated with 160 μM for 72 hours, 5×10^4 cells per mouse via tail vein, one week after injection
Experimental: A replicative senescence model (P18) was treated with nervonic acid (160 μM) and then injected into a muscle disease mouse model to assess the effect of nervonic acid treatment on the therapeutic efficacy of the replicative senescence model (P18) in terms of reducing apoptosis in muscle tissue.
Specifically, the muscle disease mouse model used was C57BL/10ScSn-Dmdmdx/J (mdx mouse) , and C57BL/10J with the same genetic background was used as a control group. All experiments were conducted using mice aged 4 to 5 months. The cells to be injected were human umbilical cord-derived young mesenchymal stem cells (control group) (P5) and replicative senescence model (P18). More specifically, the replicative senescence model (P18) was treated with 160 μM nervonic acid or an equivalent amount of DMSO for 72 hours during culture at P18 and then dissociated as single cells with 0.25% Trypsin/EDTA (Gibco, MT, USA), and 5×10^4 cells per mouse were injected via the tail vein. One week after injection, both tibial muscles of the mouse model were harvested and fixed in 4% paraformaldehyde or frozen.
In addition, the expression of Annexin V was assessed at the protein level. Specifically, the protein to be used in the experiment was extracted from muscle tissue. […]

[2] = test system: human-derived mesenchymal stem cells, control cells (P5) subcultured to P10; test: β-galactosidase staining during serial subculture P5 to P10 with treatment at each passage; assay type: cell-based; details: 160 μM for 24 hours at each passage
Experimental: (§1) Example 8. Confirmation Of anti-senescence efficacy by treating various human tissue-derived mesenchymal stem cells with nervonic acid Human-derived mesenchymal stem cells were treated with nervonic acid (160 μM) at each passage during cell culture from control cells (P5) to P10 to determine whether continuous treatment with nervonic acid during cell culture at early passage numbers was able to delay cellular senescence.
(§2) Specifically, from the day after human-derived mesenchymal stem cells were subcultured, treatment with 160 μM nervonic acid or an equivalent amount of DMSO (control) for 24 hours was performed, followed by replacement with the existing culture medium the next day. The above process was repeated to perform subculture up to P10 (passage 10). As such, B galactosidase staining for measuring cellular senescence was performed at P7, P8, P9, and P10, and cell doubling time and RNA extraction for qRT-PCR were both performed at P10. A more specific procedure therefor was carried out in the same manner as described above.

[3] = test system: replicative senescence model of human umbilical cord-derived mesenchymal stem cells (P18); test: Cell size measurement, replicative senescence model (P18); assay type: cell-based; details: 160 μM, 3 days
Experimental: Example 4. Validation of gut microbiota-derived metabolite candidate for senescence control Control cells (P5) and replicative senescence-induced human umbilical cord-derived mesenchymal stem cells (P18) were treated with nervonic acid (160 μM) to analyze the effects of the gut microbiota-derived metabolite having the ability to control senescence of stem cells on the proliferation of stem cells and cell size.
In addition, since cells have the characteristic of undergoing hypertrophy during the progression of cellular senescence, cell sizes were compared.

[4] = test system: human-derived mesenchymal stem cells, control cells (P5) subcultured to P10; test: Doubling time by CCK-8 assay at P10 after treatment at each passage; assay type: cell-based; details: 160 μM for 24 hours at each passage, at P10, CCK-8
Experimental: as §1, §2
Also, the doubling time of the control group (DMSO) and the nervonic acid treatment group was measured using CCK (cell counting kit)-8 assay.

[5] = test system: human bone marrow-derived mesenchymal stem cells (BM-MSCs/passage 15); test: β-galactosidase staining, senescent BM-MSCs; assay type: cell-based; details: BM-MSCs passage 15, 3 days
Experimental: Human bone marrow-derived mesenchymal stem cells (BM-MSCs) were purchased from Cambrex (Lonza, #PT-2501).
(§3) Each of the obtained mesenchymal stem cells was subcultured in aMEM (a-modified Minimum Essential Media) containing 10% fetal bovine serum (FBS) and 0.5% gentamicin (10 mg/ml).
(§4) The replicative senescence models of human adipose-derived mesenchymal stem cells (AD-MSCs/passage 18), human bone marrow-derived mesenchymal stem cells (BM-MSCs/passage 15), human umbilical cord blood-derived mesenchymal stem cells (UCB-MSCs/passage 16), and human placenta-derived mesenchymal stem cells (PL-MSCs/passage 18) established as described above were treated with nervonic acid for 3 days, and β-galactosidase staining was performed to observe the extent of senescence.

[6] = test system: SASP markers IL-6, MMP3, IGFBP3, IGFBP5, IGFBP7; test: qRT-PCR of SASP markers at P10 after treatment at each passage; assay type: cell-based, human; details: 160 μM for 24 hours at each passage
Experimental: Specifically, qRT-PCR performed in this example is as follows: after treating the replicative senescence model (P18) with nervonic acid for 3 days, total RNA was extracted using Trizol (Invitrogen, MA, USA) according to the method provided by the vendor. After quantifying the extracted total RNA, random hexamer and dNTP were added, and PCR was performed at 65° C. for 5 minutes. 5× SSIV buffer, 100 mM DTT, RNAse OUT, and Superscript IV RT were added and reverse transcription was performed to synthesize cDNA, and then qRT-PCR was performed to measure gene expression, and the expression levels were compared through 2^−ΔΔCt analysis.
as §1, §2

[7] = test system: human placenta-derived mesenchymal stem cells (PL-MSCs/passage 18); test: β-galactosidase staining, senescent PL-MSCs; assay type: cell-based; details: PL-MSCs passage 18, 3 days
Text: Human placenta-derived mesenchymal stem cells (pl-mscs) Were Isolated From Placentas Separated according to the previously reported method of Choi et al. (PLOS ONE, (2017) 12 (2): e0172642), umbilical cord blood-derived mesenchymal stem cells (UCB-MSCs) were isolated from the umbilical cord blood separated according to the method of Kim et al. (FEBS Letters, (2010) 584:3601-3608), and adipose tissue-derived mesenchymal stem cells (AD-MSCs) were isolated from adipose tissue separated according to the previously reported method of Palumbo et al. (Int. J. Mol. Sci. (2018) 19:1987).
as §3, §4

[8] = test system: replicative senescence model of human umbilical cord-derived mesenchymal stem cells (P18); test: Cytotoxicity by CCK-8 assay, replicative senescence model (P18); assay type: cell-based; details: 160 μM, P18, CCK-8

SMILES: CCCCCCCC/C=C\CCCCCCCCCCCCCC(=O)O [nervonic acid]
- Annexin V protein expression (Western blotting), fold decrease compared to mdx control group [1]: 0.30±0.02 fold
- extent of senescence (β-galactosidase staining), fold compared to DMSO control at P10 [2]: 0.40±0.07 fold
- cell size, fold decrease compared to before treatment [3]: 0.47±0.03 fold
- doubling time [4]: 24.7 h
- progression of senescence (β-galactosidase staining) compared to control group (DMSO) [5]: progression of senescence was significantly inhibited
- IGFBP3 mRNA expression, fold compared to control group (DMSO) [6]: 0.77±0.03 fold
- IGFBP5 mRNA expression, fold compared to control group (DMSO) [6]: 0.80±0.03 fold
- IGFBP7 mRNA expression, fold compared to control group (DMSO) [6]: 0.91±0.03 fold
- IL-6 mRNA expression, fold compared to control group (DMSO) [6]: 0.77±0.03 fold
- MMP3 mRNA expression, fold compared to control group (DMSO) [6]: 0.65±0.07 fold
- progression of senescence (β-galactosidase staining) compared to control group (DMSO) [7]: progression of senescence was significantly inhibited
- cell viability, fold decrease compared to before treatment [8]: 0.68±0.03 fold
